Assay results: US4771123A, “Peptide thioneamides as selective substrates for cysteine proteases” (Enzyme Systems Products, Inc., priority 1986, dated 1988)

Legend:
Format in all cases: biochemical
[1] = target: T1, Papain (Carica papaya, UniProt P00784); assay: Hydrolysis of oxyamide and thioneamide substrates by papain (catalytic constants, Table I); details: pH 6.5, thiol buffer (52 mM NaH2PO4, 31 mM dithiothreitol, 2.1 mM EDTA), 12.5% DMSO
T1 sequence (P00784 134-345): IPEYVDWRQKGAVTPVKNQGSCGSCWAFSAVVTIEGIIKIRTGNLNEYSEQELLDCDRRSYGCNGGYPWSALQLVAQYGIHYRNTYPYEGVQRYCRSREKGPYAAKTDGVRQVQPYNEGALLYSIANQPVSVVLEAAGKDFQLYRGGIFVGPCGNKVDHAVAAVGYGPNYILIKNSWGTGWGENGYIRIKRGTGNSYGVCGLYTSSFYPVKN
Protocol: (§1) Table I below provides a comparison between hydrolysis rates of trypsin and papain acting on two different oxyamides and on their corresponding thioneamides. Trypsin was used at pH 7.5 in a Tris buffer (50 mM), with 10 mM CaCl2, and 12.5% DMSO. Papain was used at pH 6.5 in a thiol buffer (52 mM NaH2 PO4, 31 mM dithiothreitol, 2.1 mM EDTA) and 12.5% DMSO. Table I lists the catalytic constants kcat (moles product formed per second per mole enzyme), KM (M), and kcat /KM (M^-1 sec^-1) for the indicated substrates.

[2] = target: T1, Papain; assay: Selective detection assay, rate of AIE formation with papain alone (Table II); details: Papain 6.85×10^-6 M; thiol buffer pH 6.5, 2.5% DMSO; substrate 2.46×10^-4 M (Cbz-Lys-AIE) or 2.53×10^-4 M (Cbz-Lys.PSI.[CS]-AIE)
Protocol: (§2) A thiol buffer at pH 6.5 was used (52 mM NaH2 PO4, 31 mM dithiothreitol, 2.1 mM EDTA) with 2.5% DMSO. The enzyme concentrations in the assays were 6.85×10^-6 M for papain, and 1.28×10^-6 M for trypsin. Substrate concentrations were 2.46×10^-4 M for Cbz-Lys-AIE, and 2.53×10^-4 M for Cbz-Lys.PSI.[CS]-AIE. Rates are given in terms of moles AIE formed per minute.

[3] = test system: Trypsin; assay: Hydrolysis of oxyamide and thioneamide substrates by trypsin (catalytic constants, Table I); details: pH 7.5, Tris buffer (50 mM), 10 mM CaCl2, 12.5% DMSO
Protocol: as §1

[4] = test system: Trypsin; assay: Selective detection assay, rate of AIE formation with trypsin alone (Table II); details: Trypsin 1.28×10^-6 M; thiol buffer pH 6.5, 2.5% DMSO; substrate 2.46×10^-4 M (Cbz-Lys-AIE) or 2.53×10^-4 M (Cbz-Lys.PSI.[CS]-AIE)
Protocol: as §2

| Compound | Km [1] [µM] | kcat [1] | kcat /KM [1] [M⁻¹ s⁻¹] | Rate of AIE formation [2] | Km [3] [µM] | kcat [3] | kcat /KM [3] [M⁻¹ s⁻¹] | rate of product formation by trypsin (in words) [3] | Rate of AIE formation [4] |
| --- | --- | --- | --- | --- | --- | --- | --- | --- | --- |
| COC(=O)c1cc(NC(=O)[C@H](CCCCN)NC(=O)OCc2ccccc2)cc(C(=O)OC)c1 [Cbz--Lys--AIE, Cbz-Lys-AIE] | 281 | 2.95 × 10^-2 moles product formed per secon | 105 | 6.03 moles AIE formed per minute | 168 | 1.15 × 10^-1 moles product formed per secon | 686 |  |  |
| Br.COC(=O)c1cc(NC(=S)[C@H](CCCNC(=N)N)NC(=O)[C@H](Cc2ccccc2)NC(=O)OCc2ccccc2)cc(C(=O)OC)c1 [Cbz--Phe--Arg.psi.[CS]--AIE, Cbz-Phe-Arg.PSI.[CS]-AIE.HBr] | 574 | 5.35 moles product formed per secon | 0.0932 |  |  |  |  | NO RATE |  |
| Cbz--Phe--Arg--AIE | 813 | 3.53 × 10^1 moles product formed per secon | 43500 |  | 502 | 9.03 × 10^-1 moles product formed per secon | 1800 |  |  |
| Cbz-Lys.PSI.[CS]-AIE.HCl [Cbz--Lys.psi.[CS]--AIE] | 213 | 4.00 × 10^-3 moles product formed per secon | 18.8 | 1.15 moles AIE formed per minute |  |  |  | NO RATE | 0.00 moles AIE formed per minute |
